Legend:
[1] = Plasma concentration 3 h post dose in murine model of tuberculosis; assay type: in vivo, BALB/c mice infected with M. tuberculosis H37Rv; conditions: TB model
[2] = design: method as in Xu et al., 2019; conditions: ref Xu et al., 2019; cited from earlier work
[3] = Lung and spleen tissue exposure in BALB/c mice
[4] = Stability of BDQ, M2 and TBI-166 in mice plasma (LC-MS/MS validation)
[5] = Steady-state plasma pharmacokinetics of BDQ, M2 and TBI-166 in BALB/c mice; conditions: for AUC(0-t): Plasma; for t 1/2: after last dose
CYP2A6 = molecular target: T1, CYP2A6 (Homo sapiens, UniProt P11509); experiment: Direct CYP inhibition in human liver microsomes with marker probe substrates; conditions: read-out: Inhibition, IC50; HLM, CYP2A6 probe substrate
T1 sequence (P11509 1-494): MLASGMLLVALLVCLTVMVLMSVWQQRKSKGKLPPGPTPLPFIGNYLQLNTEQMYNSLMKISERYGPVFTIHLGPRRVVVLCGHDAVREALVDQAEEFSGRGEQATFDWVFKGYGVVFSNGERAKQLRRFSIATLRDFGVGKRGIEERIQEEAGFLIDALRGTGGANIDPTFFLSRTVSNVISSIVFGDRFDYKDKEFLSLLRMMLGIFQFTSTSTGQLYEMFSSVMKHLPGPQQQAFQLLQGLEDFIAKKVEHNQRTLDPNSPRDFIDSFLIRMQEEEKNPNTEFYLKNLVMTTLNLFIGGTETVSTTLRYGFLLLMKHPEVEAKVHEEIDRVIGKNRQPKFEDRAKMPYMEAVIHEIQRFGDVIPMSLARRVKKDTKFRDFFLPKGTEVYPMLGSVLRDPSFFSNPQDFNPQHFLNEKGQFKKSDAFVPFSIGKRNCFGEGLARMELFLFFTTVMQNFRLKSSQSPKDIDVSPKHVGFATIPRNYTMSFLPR

CYP2C8 = molecular target: T2, CYP2C8 (Homo sapiens, UniProt P10632); experiment: as above; conditions: read-out: Inhibition, IC50; HLM, CYP2C8 probe substrate
T2 sequence (P10632 1-490): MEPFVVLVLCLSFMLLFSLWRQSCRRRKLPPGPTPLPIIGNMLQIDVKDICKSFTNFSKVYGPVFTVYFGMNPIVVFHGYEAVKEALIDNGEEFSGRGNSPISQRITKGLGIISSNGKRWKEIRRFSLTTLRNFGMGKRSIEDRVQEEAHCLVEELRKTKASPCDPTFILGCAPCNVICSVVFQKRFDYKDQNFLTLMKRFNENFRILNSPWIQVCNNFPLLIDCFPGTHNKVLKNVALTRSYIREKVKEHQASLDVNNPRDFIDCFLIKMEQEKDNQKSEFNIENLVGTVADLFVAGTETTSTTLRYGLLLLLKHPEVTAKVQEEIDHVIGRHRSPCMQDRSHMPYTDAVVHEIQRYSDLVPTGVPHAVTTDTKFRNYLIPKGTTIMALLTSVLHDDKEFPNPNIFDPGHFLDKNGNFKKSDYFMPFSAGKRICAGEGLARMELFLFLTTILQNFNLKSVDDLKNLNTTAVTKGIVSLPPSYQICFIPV

CYP2C9 = CYP2C9 (Homo sapiens, UniProt P11712); experiment: as above; conditions: read-out: Inhibition, IC50; HLM, CYP2C9 probe substrate
CYP2C19 = CYP2C19 (Homo sapiens, UniProt P33261); experiment: as above; conditions: read-out: Inhibition, IC50; HLM, CYP2C19 probe substrate
CYP2D6 = CYP2D6 (Homo sapiens, UniProt P10635); experiment: as above; conditions: read-out: Inhibition, IC50; HLM, CYP2D6 probe substrate
CYP2E1 = CYP2E1 (Homo sapiens, UniProt P05181); experiment: as above; conditions: read-out: Inhibition, IC50; HLM, CYP2E1 probe substrate
[6] = plasma, TBI-166 group (TBI-166 alone)

CYP2C19, sequence (P33261 whole entry): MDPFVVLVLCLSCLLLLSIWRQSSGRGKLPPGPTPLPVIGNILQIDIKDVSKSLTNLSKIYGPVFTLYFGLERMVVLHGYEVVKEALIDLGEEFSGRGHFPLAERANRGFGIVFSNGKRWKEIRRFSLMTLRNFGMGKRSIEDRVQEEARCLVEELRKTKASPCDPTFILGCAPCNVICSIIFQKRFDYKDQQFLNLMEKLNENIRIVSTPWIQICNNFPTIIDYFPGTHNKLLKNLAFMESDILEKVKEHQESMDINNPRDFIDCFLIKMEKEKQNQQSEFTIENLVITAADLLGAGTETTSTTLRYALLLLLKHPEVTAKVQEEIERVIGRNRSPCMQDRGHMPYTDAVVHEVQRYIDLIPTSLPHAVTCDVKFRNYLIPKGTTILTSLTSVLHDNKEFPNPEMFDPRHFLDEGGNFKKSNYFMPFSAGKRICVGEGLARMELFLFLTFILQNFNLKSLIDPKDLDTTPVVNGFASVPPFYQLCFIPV
CYP2E1, sequence (P05181 whole entry): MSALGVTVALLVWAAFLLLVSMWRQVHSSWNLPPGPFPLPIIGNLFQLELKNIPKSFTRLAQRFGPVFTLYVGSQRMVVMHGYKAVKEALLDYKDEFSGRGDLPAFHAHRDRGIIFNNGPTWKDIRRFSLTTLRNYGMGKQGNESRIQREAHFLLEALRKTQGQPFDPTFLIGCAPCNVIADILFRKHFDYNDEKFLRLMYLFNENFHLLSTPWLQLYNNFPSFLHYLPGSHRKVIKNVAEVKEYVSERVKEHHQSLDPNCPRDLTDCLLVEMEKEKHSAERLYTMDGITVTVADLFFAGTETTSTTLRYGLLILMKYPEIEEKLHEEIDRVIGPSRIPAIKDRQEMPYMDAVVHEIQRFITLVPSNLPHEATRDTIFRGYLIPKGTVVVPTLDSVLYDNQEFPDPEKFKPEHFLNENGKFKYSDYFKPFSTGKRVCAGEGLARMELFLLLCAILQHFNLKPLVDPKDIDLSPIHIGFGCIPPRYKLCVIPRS
CYP2D6, sequence (P10635 whole entry): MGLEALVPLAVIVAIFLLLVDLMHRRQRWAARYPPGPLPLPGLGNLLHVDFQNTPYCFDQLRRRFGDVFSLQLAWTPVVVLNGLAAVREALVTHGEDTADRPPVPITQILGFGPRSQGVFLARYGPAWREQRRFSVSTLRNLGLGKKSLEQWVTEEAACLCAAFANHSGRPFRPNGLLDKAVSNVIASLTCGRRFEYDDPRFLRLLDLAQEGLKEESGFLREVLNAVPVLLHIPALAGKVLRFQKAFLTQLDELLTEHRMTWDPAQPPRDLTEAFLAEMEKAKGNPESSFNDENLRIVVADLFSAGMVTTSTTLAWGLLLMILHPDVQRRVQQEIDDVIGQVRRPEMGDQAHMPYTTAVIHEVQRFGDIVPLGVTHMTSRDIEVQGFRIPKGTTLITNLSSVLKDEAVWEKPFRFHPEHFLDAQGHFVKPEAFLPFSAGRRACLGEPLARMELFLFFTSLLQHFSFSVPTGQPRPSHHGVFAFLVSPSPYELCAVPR
CYP2C9, sequence (P11712 whole entry): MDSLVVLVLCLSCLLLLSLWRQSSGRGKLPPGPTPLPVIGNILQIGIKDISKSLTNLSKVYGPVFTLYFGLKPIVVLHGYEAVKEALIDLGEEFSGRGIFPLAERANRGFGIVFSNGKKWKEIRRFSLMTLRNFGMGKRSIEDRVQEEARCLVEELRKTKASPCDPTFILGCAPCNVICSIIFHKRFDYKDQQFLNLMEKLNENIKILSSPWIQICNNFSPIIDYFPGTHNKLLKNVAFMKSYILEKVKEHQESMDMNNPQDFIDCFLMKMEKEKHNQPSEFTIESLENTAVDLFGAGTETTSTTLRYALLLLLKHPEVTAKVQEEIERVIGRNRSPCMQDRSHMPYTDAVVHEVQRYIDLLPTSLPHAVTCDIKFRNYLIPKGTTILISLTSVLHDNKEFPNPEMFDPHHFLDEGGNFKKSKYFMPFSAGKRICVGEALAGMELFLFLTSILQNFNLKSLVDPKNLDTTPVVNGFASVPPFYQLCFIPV

## COc1ncccc1Nc1cc2nc3ccccc3n(-c3ccc(OC(F)(F)F)cc3)c-2cc1=NC1CCC(OC)CC1 (centres unmarked) [TBI-166, Pyrifazimine]
[1]; BDQ + TBI-166 group, W4
  Mean plasma concentration at three hours after oral administration: 1383.02 ± 411.59 ng/mL
[1]; BDQ + TBI-166 group, W8
  Mean plasma concentration at three hours after oral administration: 1330.40 ± 133.72 ng/mL
[1]; BDQ group (25 mg/kg), W4, LLOQ 5, 5, 15 ng/mL for BDQ, TBI-166, M2
  Mean plasma concentration at three hours after oral administration: <LLOQ
[1]; BDQ group (25 mg/kg), W8, LLOQ 5, 5, 15 ng/mL for BDQ, TBI-166, M2
  Mean plasma concentration at three hours after oral administration: <LLOQ
[1]; TBI-166 group (20 mg/kg), W4, LLOQ 5, 5, 15 ng/mL for BDQ, TBI-166, M2
  Mean plasma concentration at three hours after oral administration: 1375.79 ± 123.54 ng/mL
[1]; TBI-166 group (20 mg/kg), W8, LLOQ 5, 5, 15 ng/mL for BDQ, TBI-166, M2
  Mean plasma concentration at three hours after oral administration: 1323.76 ± 311.89 ng/mL
[2]
  concentration in liver tissue: 32280 ng/mL
[3]; Lung, BDQ + TBI-166 group
  AUC(0-t): 321.07 ± 52.91 µg·h/g
  tissue-to-plasma ratio (Kp): 5.17
[3]; Lung, TBI-166 group
  AUC(0-t): 378.66 ± 104.67 µg·h/g
  tissue-to-plasma ratio (Kp): 5.49
[3]; Spleen, BDQ + TBI-166 group
  AUC(0-t): 483.54 ± 94.75 µg·h/g
  tissue-to-plasma ratio (Kp): 7.79
[3]; Spleen, TBI-166 group
  AUC(0-t): 296.09 ± 27.68 µg·h/g
  tissue-to-plasma ratio (Kp): 4.29
[3]; lungs
  exposure (AUC0-t) with vs without coadministration: similar
[3]; spleens
  increase of exposure (AUC0-t) after coadministration of BDQ with TBI-166: 1.5 fold
[4]; 4℃ for 24 h, 15 ng/mL
  Stability in mice plasma, RE: -15.07%
[4]; 4℃ for 24 h, 75 ng/mL
  Stability in mice plasma, RE: 1.87%
[4]; 4℃ for 24 h, 750 ng/mL
  Stability in mice plasma, RE: -12.65%
[4]; -40℃ for 7 d, 15 ng/mL
  Stability in mice plasma, RE: -2.20%
[4]; -40℃ for 7 d, 75 ng/mL
  Stability in mice plasma, RE: -1.01%
[4]; -40℃ for 7 d, 750 ng/mL
  Stability in mice plasma, RE: -13.53%
[4]; Freeze-thaw three cycles, 15 ng/mL
  Stability in mice plasma, RE: -14.27%
[4]; Freeze-thaw three cycles, 75 ng/mL
  Stability in mice plasma, RE: -5.39%
[4]; Freeze-thaw three cycles, 750 ng/mL
  Stability in mice plasma, RE: -13.50%
[4]; In auto-sample for 24 h, 15 ng/mL
  Stability in mice plasma, RE: 18.87%
[4]; In auto-sample for 24 h, 75 ng/mL
  Stability in mice plasma, RE: -12.61%
[4]; In auto-sample for 24 h, 750 ng/mL
  Stability in mice plasma, RE: -7.77%
[4]; Room temperature for 24 h, 15 ng/mL
  Stability in mice plasma, RE: -6.20%
[4]; Room temperature for 24 h, 75 ng/mL
  Stability in mice plasma, RE: -6.81%
[4]; Room temperature for 24 h, 750 ng/mL
  Stability in mice plasma, RE: -10.81%
[5]; Cmax observed at human equivalent dose of 20 mg, plasma, mice
  C max, p.o. dosage: 700 ng/mL
[5]; BDQ + TBI-166 group (Table S4)
  AUC(0-t): 62050 ± 2520 ng·h/mL
[5]; TBI-166 group (Table S4)
  AUC(0-t): 68950 ± 4840 ng·h/mL
[5]; plasma, BDQ + TBI-166 group
  AUC(0-last): 62,050 ± 2,519 h·ng/mL
  AUC(0-last) as percent of single-drug group: 91%
  AUC(0-∞): 103,720 h·ng/mL
  C max: 709.45 ± 71.13 ng/mL
  MRT(0-t): 65.18 h
  T max: 1 h
[5]; plasma, BDQ + TBI-166 group (BDQ 25 mg/kg + TBI-166 20 mg/kg, gavage QD 21 days)
  t 1/2: 132.67 h
[5]; plasma, TBI-166 group (TBI-166 20 mg/kg alone, gavage QD 21 days)
  t 1/2: 142.03 h
[5]; [6]
  AUC(0-last): 68,953 ± 4,843 h·ng/mL
  AUC(0-∞): 119,114 h·ng/mL
  C max: 1,043.84 ± 92.53 ng/mL
  MRT(0-t): 66.37 h
  T max: 1 h
[5]; plasma, TBI-166 group (reference)
  AUC(0-last) as percent of single-drug group: 100%
[5]; read-out: C max, p.o. dosage, Cmax observed at human equivalent dose of 20 mg, plasma, mice
  Cmax: 1190 nM
CYP2A6
  IC50: 1380 nM
CYP2C8
  IC50: > 50000 nM
CYP2C9
  IC50: 5450 nM
CYP2C19
  IC50: 4490 nM
CYP2D6
  IC50: 1600 nM
CYP2E1
  IC50: 930 nM
